Data taken from PubChem BioAssay AID330 (DTP/NCI, 2004).
Several values for one entry are separate records, joined by “and”; a condition that tells them apart may be missing. Identical values can stand only once. Inconclusive results and toxic doses are left out.

System: P388 leukemia ip, CD2F1 mice, survival T/C
Assay: NCI In Vivo Anticancer Drug Screen. Data for tumor model P388 Leukemia (intraperitoneal) in CD2F1 (CDF1) mice
Conditions: endpoint: median survival time, higher = longer survival
Outline: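 Mice carrying the transplanted tumor received test compound or vehicle. Survival was recorded in each group, and the value is the treated-group measurement divided by that of the vehicle-treated control group.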

[1] = dose: 50.0 mg/kg/injection, schedule: Q01DX005 (ip), vehicle: saline with Tween-80
[2] = dose: 100.0 mg/kg/injection, schedule: Q04DX003 (ip), vehicle: saline
[3] = dose: 200.0 mg/kg/injection, schedule: Q04DX003 (ip), vehicle: saline
[4] = dose: 50.0 mg/kg/injection, schedule: Q01DX009 (ip), vehicle: Klucel (hydroxypropylcellulose) (HPC)
[5] = dose: 100.0 mg/kg/injection, schedule: Q01DX009 (ip), vehicle: Klucel (hydroxypropylcellulose) (HPC)
[6] = dose: 200.0 mg/kg/injection, schedule: Q01DX009 (ip), vehicle: Klucel (hydroxypropylcellulose) (HPC)
[7] = dose: 50.0 mg/kg/injection, schedule: Q01DX009 (ip), vehicle: saline with Tween-80
[8] = dose: 100.0 mg/kg/injection, schedule: Q01DX009 (ip), vehicle: saline with Tween-80
[9] = dose: 200.0 mg/kg/injection, schedule: Q01DX009 (ip), vehicle: saline with Tween-80
[10] = dose: 60.0 mg/kg/injection, schedule: Q01DX005 (ip), vehicle: saline with Tween-80
[11] = dose: 120.0 mg/kg/injection, schedule: Q01DX005 (ip), vehicle: saline with Tween-80
[12] = dose: 240.0 mg/kg/injection, schedule: Q01DX005 (ip), vehicle: saline with Tween-80

NC(N)=NN=c1/c(=N\N=C(N)N)c2cc3ccccc3cc2/c1=N/N=C(N)N
T/C (dose: 6.25 mg/kg/injection, schedule: Q01DX001 (ip), vehicle: saline): 102 % of control
T/C (dose: 12.5 mg/kg/injection, schedule: Q01DX001 (ip), vehicle: saline): 96 % of control
T/C (dose: 25.0 mg/kg/injection, schedule: Q01DX001 (ip), vehicle: saline): 96 % of control and 97 % of control

OCCNCCNc1ccnc2c1ccc1ccccc12
T/C [1]: 105 % of control

CCC(=O)C(=O)CC1CC(c2ccco2)=Nc2ccccc2S1 (stereo not given)
T/C [1]: 111 % of control
T/C (dose: 100.0 mg/kg/injection, schedule: Q01DX005 (ip), vehicle: saline with Tween-80): 113 % of control
T/C (dose: 200.0 mg/kg/injection, schedule: Q01DX005 (ip), vehicle: saline with Tween-80): 102 % of control

CN1CCC(OC(=O)c2ccco2)CC1
T/C (dose: 50.0 mg/kg/injection, schedule: Q04DX003 (ip), vehicle: saline): 101 % of control
T/C [2]: 100 % of control
T/C [3]: 99 % of control

CC(=O)Nn1c(N)nc2ccccc21
T/C [2]: 100 % of control
T/C [3]: 109 % of control
T/C (dose: 400.0 mg/kg/injection, schedule: Q04DX003 (ip), vehicle: saline): 96 % of control

COc1ccc(Cc2n[nH]c(=O)c3c(C)[nH]nc23)cc1
T/C [4]: 93 % of control
T/C [5]: 100 % of control
T/C [6]: 119 % of control

O=C1NC(=O)N(c2ccc(Cl)c(Cl)c2)C1=O
T/C [4]: 94 % of control
T/C [5]: 93 % of control
T/C [6]: 94 % of control

Cc1ccc(NC(=O)NNC(=O)CNC(=O)Nc2n[nH]c(=S)s2)c(C)c1
T/C [7]: 92 % of control
T/C [8]: 86 % of control
T/C [9]: 91 % of control

CCCCCC(=O)NCC(=O)NC1C(C)OC(Nc2ncnc3nc[nH]c23)C(O)C1O (stereo not given)
T/C (dose: 0.5 mg/kg/injection, schedule: Q01DX009 (ip), vehicle: other): 99 % of control
T/C (dose: 1.0 mg/kg/injection, schedule: Q01DX009 (ip), vehicle: other): 102 % of control
T/C (dose: 2.0 mg/kg/injection, schedule: Q01DX009 (ip), vehicle: other): 106 % of control
T/C (dose: 4.0 mg/kg/injection, schedule: Q01DX009 (ip), vehicle: other): 106 % of control
T/C (dose: 8.0 mg/kg/injection, schedule: Q01DX009 (ip), vehicle: other): 99 % of control

C/C(=N\N)C1=NNC(C)(C)NN1
T/C [4]: 96 % of control
T/C [5]: 96 % of control
T/C [6]: 98 % of control

CCCC(O)(CCC)/C(C)=N/O
T/C (dose: 12.5 mg/kg/injection, schedule: Q01DX009 (ip), vehicle: saline with Tween-80): 99 % of control
T/C (dose: 25.0 mg/kg/injection, schedule: Q01DX009 (ip), vehicle: saline with Tween-80): 107 % of control
T/C [7]: 87 % of control and 98 % of control
T/C [9]: 88 % of control

COC(=O)c1cccc2c([N+](=O)[O-])c(NC(C)=O)cc(C(=O)OC)c12
T/C [10]: 100 % of control
T/C [11]: 104 % of control
T/C [12]: 100 % of control

C1=CN2C(c3ccccc3)=NON(c3ncccn3)C2N=C1 (stereo not given)
T/C [10]: 96 % of control
T/C [11]: 91 % of control
T/C [12]: 90 % of control

[Cl][Pd][Cl].[NH-]C1CCCC2CCC[N-]C12 (stereo not given)
T/C (dose: 12.5 mg/kg/injection, schedule: Q04DX002 (ip), vehicle: saline with Tween-80): 104 % of control
T/C (dose: 25.0 mg/kg/injection, schedule: Q04DX002 (ip), vehicle: saline with Tween-80): 110 % of control
T/C (dose: 50.0 mg/kg/injection, schedule: Q04DX002 (ip), vehicle: saline with Tween-80): 104 % of control

COC(=O)C1=NNC(C(=O)OC)=NN1
T/C (dose: 25.0 mg/kg/injection, schedule: Q01DX009 (ip), vehicle: other): 87 % of control
T/C (dose: 50.0 mg/kg/injection, schedule: Q01DX009 (ip), vehicle: other): 106 % of control
T/C (dose: 100.0 mg/kg/injection, schedule: Q01DX009 (ip), vehicle: other): 98 % of control
T/C (dose: 200.0 mg/kg/injection, schedule: Q01DX009 (ip), vehicle: other): 106 % of control
T/C (dose: 400.0 mg/kg/injection, schedule: Q01DX009 (ip), vehicle: other): 103 % of control

C[C@H]1CC[C@@]2(C)C(CCC(=O)C2(C)O)[C@]1(C)CC(=O)c1ccoc1 (stereo not given in full)
T/C (dose: 3.75 mg/kg/injection, schedule: Q01DX005 (ip), vehicle: Klucel (hydroxypropylcellulose) (HPC)): 91 % of control
T/C (dose: 7.5 mg/kg/injection, schedule: Q01DX005 (ip), vehicle: Klucel (hydroxypropylcellulose) (HPC)): 88 % of control
T/C (dose: 15.0 mg/kg/injection, schedule: Q01DX005 (ip), vehicle: Klucel (hydroxypropylcellulose) (HPC)): 88 % of control
T/C (dose: 30.0 mg/kg/injection, schedule: Q01DX005 (ip), vehicle: Klucel (hydroxypropylcellulose) (HPC)): 88 % of control

CCN(CC)CC.[CH-]1CCCCC1.[CH-]1CCCCC1.[CH-]1CCCCC1.[Cl-].[I-].[Sn+4]
T/C (dose: 1.5 mg/kg/injection, schedule: Q01DX005 (ip), vehicle: Klucel (hydroxypropylcellulose) (HPC)): 96 % of control
T/C (dose: 3.0 mg/kg/injection, schedule: Q01DX005 (ip), vehicle: Klucel (hydroxypropylcellulose) (HPC)): 98 % of control
T/C (dose: 6.0 mg/kg/injection, schedule: Q01DX005 (ip), vehicle: Klucel (hydroxypropylcellulose) (HPC)): 100 % of control and 93 % of control

C/C(=N\N)c1cnc(NN)nc1C
T/C (dose: 7.5 mg/kg/injection, schedule: Q01DX005 (ip), vehicle: saline): 106 % of control
T/C (dose: 15.0 mg/kg/injection, schedule: Q01DX005 (ip), vehicle: saline): 103 % of control

CN(/C=C1\CCCCC1=O)c1ccccc1
T/C [7]: 98 % of control
T/C [8]: 102 % of control
T/C [9]: 113 % of control

Cc1cc(Cl)ccc1OCC(C)OC(=O)NC(C)C (stereo not given)
T/C [4]: 106 % of control
T/C [5]: 97 % of control
T/C [6]: 101 % of control

Cc1cc(C)nc(NN=O)c1
T/C (dose: 3.12 mg/kg/injection, schedule: Q01DX009 (ip), vehicle: water): 104 % of control and 112 % of control
T/C (dose: 6.25 mg/kg/injection, schedule: Q01DX009 (ip), vehicle: water): 121 % of control
T/C (dose: 12.5 mg/kg/injection, schedule: Q01DX009 (ip), vehicle: water): 121 % of control
T/C (dose: 50.0 mg/kg/injection, schedule: Q01DX009 (ip), vehicle: water): 95 % of control

CC(=O)OC1C(CO)OC2C1Oc1nc(=N)c(F)cn12 (stereo not given)
T/C (dose: 0.39 mg/kg/injection, schedule: Q01DX009 (ip), vehicle: saline with Tween-80): 116 % of control
T/C (dose: 1.56 mg/kg/injection, schedule: Q01DX009 (ip), vehicle: saline with Tween-80): 160 % of control
T/C (dose: 3.13 mg/kg/injection, schedule: Q01DX009 (ip), vehicle: saline with Tween-80): 91 % of control
T/C (dose: 3.13 mg/kg/injection, schedule: Q01DX009 (ip), vehicle: saline): 101 % of control
T/C (dose: 6.25 mg/kg/injection, schedule: Q01DX009 (ip), vehicle: saline): 87 % of control and 88 % of control and 93 % of control
T/C (dose: 12.5 mg/kg/injection, schedule: Q01DX009 (ip), vehicle: saline): 117 % of control
T/C (dose: 50.0 mg/kg/injection, schedule: Q01DX009 (ip), vehicle: saline): 161 % of control

COc1ccc2c(c1)CCC1(C)CC(=O)C=C21 (stereo not given)
T/C (dose: 6.25 mg/kg/injection, schedule: Q01DX009 (ip), vehicle: Klucel (hydroxypropylcellulose) (HPC)): 115 % of control
T/C (dose: 12.5 mg/kg/injection, schedule: Q01DX009 (ip), vehicle: Klucel (hydroxypropylcellulose) (HPC)): 114 % of control
T/C (dose: 25.0 mg/kg/injection, schedule: Q01DX009 (ip), vehicle: Klucel (hydroxypropylcellulose) (HPC)): 108 % of control

CC(C)(SSC(C)(C)C1NC(=O)NC1=O)C1NC(=O)NC1=O (stereo not given)
T/C (dose: 6.25 mg/kg/injection, schedule: Q01DX005 (ip), vehicle: Klucel (hydroxypropylcellulose) (HPC)): 102 % of control
T/C (dose: 12.5 mg/kg/injection, schedule: Q01DX005 (ip), vehicle: Klucel (hydroxypropylcellulose) (HPC)): 99 % of control
T/C (dose: 25.0 mg/kg/injection, schedule: Q01DX005 (ip), vehicle: Klucel (hydroxypropylcellulose) (HPC)): 98 % of control

N#CC(C(=O)C(=O)Nc1ccc(Cl)c(Cl)c1)c1c(Cl)cccc1Cl (stereo not given)
T/C [10]: 102 % of control
T/C [11]: 97 % of control
T/C [12]: 89 % of control

CC(C)=CCC/C(C)=C/COC(=O)C=[N+]=[N-]
T/C [7]: 114 % of control and 91 % of control
T/C [8]: 122 % of control
T/C [9]: 117 % of control and 122 % of control
T/C (dose: 400.0 mg/kg/injection, schedule: Q01DX009 (ip), vehicle: saline with Tween-80): 95 % of control

CC1(O)C2C3C(I)C4C5C3C1C5C42 (stereo not given)
T/C (dose: 100.0 mg/kg/injection, schedule: Q01DX001 (ip), vehicle: Klucel (hydroxypropylcellulose) (HPC)): 92 % of control
T/C (dose: 200.0 mg/kg/injection, schedule: Q01DX001 (ip), vehicle: Klucel (hydroxypropylcellulose) (HPC)): 88 % of control
T/C (dose: 400.0 mg/kg/injection, schedule: Q01DX001 (ip), vehicle: Klucel (hydroxypropylcellulose) (HPC)): 87 % of control
